How the values were obtained:
E. coli K12 = assay: Attached cells challenge test on produce leaves (Example 1); type: cell-based; details: PAA 0 ppm, 45 F, 45 s
[1] = test system: Listeria innocua ATCC 33090; assay: Suspended cells challenge test at 20 s residence time, no surfactant (Example 2); type: cell-based; details: Peroxyacetic acid 0 ppm
[2] = test system: Lactobacillus plantarum 14917; assay: as above; type: cell-based; details: Peroxyacetic acid 0 ppm
Listeria innocua = assay: Attached cells challenge test on produce leaves (Example 1); type: cell-based; details: PAA 0 ppm, 45 F, 45 s
[3] = test system: Pseudomonas aeruginosa (ATCC 9027); assay: Non-food surface coupon test (Example 6); type: cell-based; details: 90 sec residence time
[4] = test system: indigenous microorganisms (Aerobic Plate Counts); type: cell-based
[5] = 40 C; cited from earlier work

Q: Which “Attached E. Coli, Romaine” value (E. coli K12; LA 0.6%) does the source give for `CC(O)C(=O)O` (centres unmarked) [Lactic acid, lactic acid] here?
A: The value was 0.24.

Q: What about the “Attached E. Coli, Spinach” value (E. coli K12; LA 0.6%) of the same molecule?
A: Its value is 0.09.

Q: And the “Attached E. Coli, Romaine” value (E. coli K12; LA 0.9%)?
A: Its value is 0.37.

Q: And the “Attached E. Coli, Spinach” value (E. coli K12; LA 0.9%)?
A: Its value is 0.42.

Q: And the “Attached E. Coli, Romaine” value (E. coli K12; LA 1.2%)?
A: Its value is 1.28.

Q: And the “Attached E. Coli, Spinach” value (E. coli K12; LA 1.2%)?
A: The value was 0.81.

Q: And the “log reduction of suspended Listeria innocua cells” value ([1]; Lactic Acid 2000 ppm)?
A: Its value is 0.08.

Q: What about the “log reduction of suspended Listeria innocua cells” value ([1]; Lactic Acid 2500 ppm) of the same molecule?
A: Its value is 0.19.

Q: And the “log reduction of suspended Listeria innocua cells” value ([1]; Lactic Acid 3000 ppm)?
A: The value was 0.05.

Q: And the “log reduction of suspended Lactobacillus plantarum cells” value ([2]; Lactic Acid 2000 ppm)?
A: The value was 0.00.

Q: And the “log reduction of suspended Lactobacillus plantarum cells” value ([2]; Lactic Acid 2500 ppm)?
A: Its value is 0.02.

Q: And the “log reduction of suspended Lactobacillus plantarum cells” value ([2]; Lactic Acid 3000 ppm)?
A: Its value is 0.01.

Q: What about the “Attached Listeria, Romaine” value (Listeria innocua; LA 0.6%) of the same molecule?
A: Its value is 1.1.

Q: And the “Attached Listeria, Spinach” value (Listeria innocua; LA 0.6%)?
A: Its value is 0.1.

Q: What about the “Attached Listeria, Romaine” value (Listeria innocua; LA 0.9%) of the same molecule?
A: Its value is 1.4.

Q: And the “Attached Listeria, Spinach” value (Listeria innocua; LA 0.9%)?
A: Its value is 0.2.

Q: What about the “Attached Listeria, Romaine” value (Listeria innocua; LA 1.2%) of the same molecule?
A: The value was 1.5.

Q: And the “Attached Listeria, Spinach” value (Listeria innocua; LA 1.2%)?
A: Its value is 0.2.

Q: What about the “Log reductions, attached on glass coupons” value ([3]; PA 0 ppm, LA 1,250 ppm) of the same molecule?
A: Its value is 0.4.

Q: What about the “Log reductions, attached on stainless steel coupons” value ([3]; PA 0 ppm, LA 1,250 ppm) of the same molecule?
A: Its value is 1.6.

Q: And the “Log reductions, attached on glass coupons” value ([3]; PA 0 ppm, LA 2,500 ppm)?
A: The value was 1.7.

Q: What about the “Log reductions, attached on plastic coupons” value ([3]; PA 0 ppm, LA 2,500 ppm) of the same molecule?
A: Its value is 0.6.

Q: What about the “Log reductions, attached on stainless steel coupons” value ([3]; PA 0 ppm, LA 2,500 ppm) of the same molecule?
A: Its value is 1.9.

Q: And the “Log reductions, attached on wood coupons” value ([3]; PA 0 ppm, LA 2,500 ppm)?
A: The value was 1.4.

Q: What about the “Log reductions, attached on plastic coupons” value ([3]; PA 0 ppm, LA 5,000 ppm) of the same molecule?
A: The value was 1.2.

Q: What about the “Log reductions, attached on wood coupons” value ([3]; PA 0 ppm, LA 7,500 ppm) of the same molecule?
A: Its value is 3.6.

Q: For `CC(=O)OO` [Peroxyacetic acid, peroxyacetic acid], which “Aerobic Plate Counts Log Reduction” value [4] is on record?
A: The value was 0.7 Log cfu/g.

Q: What about the “Aerobic Plate Counts after wash” value [4] of the same molecule?
A: Its value is 2.7 Log cfu/g.

Q: What about the “log10 reduction of indigenous microorganism on the Romaine leaf” value [4] of the same molecule?
A: Its value is 0.7 log10.

Q: And the “apparent equilibrium constant Kap” value [5]?
A: The value was “about 2.21”.

Q: And the “Log reductions, attached on glass coupons” value ([3]; PA 60 ppm, LA 0 ppm)?
A: Its value is 0.2.

Q: What about the “Log reductions, attached on plastic coupons” value ([3]; PA 60 ppm, LA 0 ppm) of the same molecule?
A: The value was 1.2.

Q: And the “Log reductions, attached on stainless steel coupons” value ([3]; PA 60 ppm, LA 0 ppm)?
A: Its value is 1.5.

Q: What about the “Log reductions, attached on glass coupons” value ([3]; PA 80 ppm, LA 0 ppm) of the same molecule?
A: Its value is 0.0.

Q: What about the “Log reductions, attached on plastic coupons” value ([3]; PA 80 ppm, LA 0 ppm) of the same molecule?
A: Its value is 0.9.

Q: What about the “Log reductions, attached on stainless steel coupons” value ([3]; PA 100 ppm, LA 0 ppm) of the same molecule?
A: Its value is 1.4.

Q: And the “Log reductions, attached on wood coupons” value ([3]; PA 100 ppm, LA 0 ppm)?
A: Its value is 1.0.

Q: What about the “Log reductions, attached on wood coupons” value ([3]; PA 140 ppm, LA 0 ppm) of the same molecule?
A: The value was 0.8.

Source: patent US20130079408A1, “PERACID AND 2-HYDROXY ORGANIC ACID COMPOSITIONS AND METHODS FOR TREATING ITEMS” (Fresh Express Incorporated, priority 2009, published 2013)
